≈ marks a conversion by molar mass, not a printed value. Some results are limits rather than exact numbers.

The conditions of this series: buffer; pH 7.4; 200.0 µM.
A word on the kinetic solubility: it is solubility judged after dilution from a stock solution rather than from solid. In turn, `COc1cc(OC)c(C(=O)NCc2ccco2)cc1OC` returned a kinetic solubility of more than 43.7 µg/mL. The same measure for `COc1ccccc1CNC(=O)C(=O)Nc1nccs1`: 6 µg/mL (≈ 20.6 µM). In the case of `Cc1cccc(C(C)C)c1NC(=O)CSc1cccc[n+]1[O-]` it was more than 47.5 µg/mL. The same measure for `Cn1cccc1/C=C1\SC(=Nc2cccc(O)c2)NC1=O`: 5.6 µg/mL (≈ 18.7 µM); for `COc1ccccc1C(=O)NC(=O)COC(=O)C1CC1`: more than 41.6 µg/mL; for `COc1ccc(NC(=O)CN(C)C(=O)CCc2ccccc2)cc1`: 40.7 µg/mL (≈ 125 µM). In the case of `CC(C)N(C(=S)Nc1cccc(C(F)(F)F)c1)C(C)c1ccccn1` (stereo not given), the kinetic solubility was 6.7 µg/mL (≈ 18.2 µM). Compound `c1cncc(-c2noc(-c3ccc4ccccc4c3)n2)c1` returned a solubility (kinetic) of less than 0.2 µg/mL. In turn, `O=C(Nc1cccc(F)c1)Nc1c[nH]c(=O)[nH]c1=O` displayed a solubility (kinetic) of 2.4 µg/mL (≈ 9.08 µM). The same measure for `CCc1ccccc1NC(=O)C1CCCN(c2ncccn2)C1` (stereo not given): 8.3 µg/mL (≈ 26.7 µM). In the case of `O=C(Nc1ccc(F)cc1F)NC1CCCCCCC1`, the solubility (kinetic) stood at 1.9 µg/mL (≈ 6.73 µM). The same measure for `CCOc1ccc2nc(NC(=O)c3ccco3)sc2c1`: 6.9 µg/mL (≈ 23.9 µM); for `O=C(NC1CCN(Cc2ccccc2)CC1)c1ccc2c(c1)OCCCO2`: 51.6 µg/mL (≈ 141 µM). The same measure for `Cc1cc(C)c2c(n1)sc1c(N3CCN(C)CC3)ncnc12`: 39.6 µg/mL (≈ 126 µM); for `Cc1nnc(N2C(=O)c3ccc(Br)cc3C2=O)s1`: more than 48.6 µg/mL. In turn, `COc1ccccc1N1C(=O)CSC1=NC(=O)c1ccccc1` came in with a kinetic solubility of 3 µg/mL (≈ 9.19 µM). In the case of `NC(=O)c1ccc(NC(=O)COC(=O)c2ccc(Cl)nc2)cc1` it was more than 50.1 µg/mL; in that of `COc1cc2c(cc1OC)C(c1ccccc1F)NCC2` (stereo not given), more than 43.1 µg/mL; in that of `Cc1ccc(NC(=O)Nc2cccnc2)cc1Cl`, 23.3 µg/mL (≈ 89 µM).

Turning to `N/C(=N\OC(=O)CSc1ccccc1)c1ccccn1`, the kinetic solubility was more than 43.1 µg/mL. In the case of `COc1ccccc1C(=O)NCCC(=O)Nc1cccnc1` it was more than 44.9 µg/mL; in that of `COc1ccc(NC(=O)N2CCCc3cc(C)ccc32)c(OC)c1`, 27.8 µg/mL (≈ 85.2 µM); in that of `NC(=O)C1CCN(c2ccc(S(=O)(=O)N3CCCCC3)cc2[N+](=O)[O-])CC1`, 7.6 µg/mL (≈ 19.2 µM). In the case of `O=C(/N=C1\NC(=O)C(F)(C(F)(F)F)S1)NC1CCCCC1` (stereo not given) it was more than 49.1 µg/mL. The same measure for `Nc1nc(SCCO)[nH]c(=O)c1NC(=O)c1ccco1`: more than 44.4 µg/mL. In turn, `Cc1cccc(C)c1OCC(=O)NCC1CCCO1` (stereo not given) displayed a kinetic solubility of 39.5 µg/mL (≈ 150 µM). In the case of `CC(C)C(=O)Nc1cc(-c2nc3ncccc3o2)ccc1Cl` it was 6 µg/mL (≈ 19 µM). The same measure for `CCOc1cc(C(=O)Nc2ccc(N3CCOCC3)cc2)cc(Br)c1OC`: 2 µg/mL (≈ 4.59 µM).

Take `c1ccc(CN2CCN(c3nc4ccccc4s3)CC2)cc1`: the solubility (kinetic) is 1 µg/mL (≈ 3.23 µM).

`CCN1CCN(S(=O)(=O)c2ccc(Cl)c(C(=O)NCc3nc4ccccc4[nH]3)c2)CC1` returned a solubility (kinetic) of 18.8 µg/mL (≈ 40.7 µM). The same measure for `O=C(c1ccc(F)cc1Cl)N1CCN(CCc2ccccc2)CC1`: more than 52 µg/mL; for `COc1ccc(C(=O)NCCN2CCCC2)cc1[N+](=O)[O-]`: more than 44 µg/mL.

`O=C(COC(=O)c1c[nH]c(=O)[nH]c1=O)Nc1ccccc1F` yielded a solubility (kinetic) of more than 46.1 µg/mL. Regarding `O=C1Nc2cc(C(F)(F)F)ccc2N2CCCCC12` (stereo not given), the solubility (kinetic) is 7.1 µg/mL (≈ 26.3 µM). The same measure for `Cc1cc(C)cc(NC(=O)c2cccc(NC(=O)c3ccco3)c2)c1`: 1 µg/mL (≈ 2.99 µM); for `CCN1CCN(c2ccc(NC(=O)c3cnccn3)cc2)CC1`: more than 46.7 µg/mL.

Turning to `COC(=O)c1c(NC(C)=O)sc(C)c1C`, the solubility (kinetic) is 31 µg/mL (≈ 136 µM). The same measure for `COc1ccccc1NC(=O)NCc1ccc(C)n1C`: 19.9 µg/mL (≈ 72.8 µM); for `COc1ccc(Oc2nc(-c3cccnc3)nc3ccccc23)cc1`: less than 0.2 µg/mL; for `Cc1ccc(C)c(N2CCN(C3CCCC(C)C3)CC2)c1` (stereo not given): 23.3 µg/mL (≈ 81.3 µM). In turn, `CCC1(C)Cc2ccccc2-c2nc(NCCCO)n(C)c(=O)c21` (stereo not given) came in with a solubility (kinetic) of more than 49.1 µg/mL.

The compound `Cc1ccc(NC(=O)CNC(=O)c2ccc(C(C)(C)C)cc2)cc1S(=O)(=O)N1CCOCC1` showed a kinetic solubility of 16.1 µg/mL (≈ 34 µM).

The compound `COc1ccc(C)cc1NC(=O)CCNC(=O)c1ccco1` came in with a kinetic solubility of more than 45.3 µg/mL. In the case of `CC(C)C(O)(C#CCN1CCCCCC1)c1ccccc1.Cl` (stereo not given) it was more than 48.3 µg/mL; in that of `O=C(c1cc(-c2ccc(F)cc2)nc2ccccc12)N1CCC1`, more than 46 µg/mL; in that of `Cc1cc(NC(=O)COC(=O)c2cnccn2)ccc1Br`, more than 52.5 µg/mL. In the case of `COc1ccc(C(=O)CC(=O)C(=O)Nc2cccc(C(C)=O)c2)cc1` it was 13.9 µg/mL (≈ 41 µM); in that of `CCc1nc2ccccc2c(C(=O)OCC(=O)Nc2ccc(NC(C)=O)cc2)c1C`, 12.1 µg/mL (≈ 29.8 µM); in that of `CN1CCN(c2ccc(C(F)(F)F)cc2NC(=O)c2ccco2)CC1`, more than 53 µg/mL.

`O=C(Nc1nccs1)c1ccc(-c2ccc(F)cc2)o1`: the kinetic solubility was 1.5 µg/mL (≈ 5.2 µM). In the case of `CCC(C)NC(=S)Nc1ccc(F)cc1` (stereo not given) it was more than 33.9 µg/mL. The same measure for `COc1ccccc1/C=N/OCc1cc(C(C)=O)ccc1OC`: 8.4 µg/mL (≈ 26.8 µM). The same measure for `O=C(NCc1cccnc1)C(=O)Nc1nccs1`: 20.4 µg/mL (≈ 77.8 µM); for `Cc1ccnc(NC(=O)c2ccccc2NC(=O)c2ccccc2)c1`: less than 0.2 µg/mL; for `Cc1ccc(S(=O)(=O)N2C(=O)CCC2C(N)=O)cc1` (stereo not given): more than 42.3 µg/mL. Turning to `N#CC1(NC(=O)COC(=O)C2=COCCO2)CCCCC1`, the kinetic solubility is more than 44.1 µg/mL. In the case of `Cc1ccc(-c2nc3ncccc3o2)cc1NC(=O)c1ccccc1` it was 0.3 µg/mL (≈ 0.911 µM); in that of `CCN(CC)c1ccc(N)cc1S(=O)(=O)Nc1ccccc1OC`, 41.8 µg/mL (≈ 120 µM). `S=c1nc[nH]c2nc[nH]c12` came in with a solubility (kinetic) of 22.5 µg/mL (≈ 148 µM).

`O=S(=O)(Nc1ccon1)c1ccc(Br)s1`: the kinetic solubility stood at 31.3 µg/mL (≈ 101 µM). The same measure for `O=C(CNC(=O)c1ccccc1F)NCc1ccncc1`: more than 43.1 µg/mL; for `N#CC1=C(N)Oc2nc[nH]c(=O)c2C1c1cccs1` (stereo not given): more than 40.8 µg/mL; for `Cc1ccc(C(=O)NC2=NCCS2)cc1`: 32.9 µg/mL (≈ 149 µM). The same measure for `CCN(CC)C(=O)c1cccc2c1-c1ccccc1C2=O`: 41.5 µg/mL (≈ 149 µM); for `COc1ccc(C(=O)Nc2ccc(N3CCCC3)cc2)cc1Br`: less than 0.4 µg/mL. The same measure for `Cc1noc(C)c1C(=O)NCCc1ccc(S(N)(=O)=O)cc1`: more than 48.5 µg/mL.

`COc1ccc(CNC(=O)c2ccc[nH]2)cc1` displayed a solubility (kinetic) of more than 34.5 µg/mL. In the case of `CC(CCc1ccccc1)NC(=O)CN1CCSc2ccccc21` (stereo not given) it was 20.1 µg/mL (≈ 59 µM). Take `Cc1cc(NC(=O)CSc2nccn2-c2ccc([N+](=O)[O-])cc2)no1`: the solubility (kinetic) was 33.8 µg/mL (≈ 94.1 µM). In the case of `Cc1cc(C(=O)Nc2ccccc2C)c2ccccc2n1` it was 34.7 µg/mL (≈ 126 µM); in that of `COc1cc(C(=O)N2c3ccccc3CCC2C)cc(OC)c1OC` (stereo not given), 32.8 µg/mL (≈ 96.1 µM); in that of `Cl.NCCOc1ccc(C23CC4CC(CC(C4)C2)C3)cc1`, more than 46.2 µg/mL. `COc1ccc(C(=O)/C=C2\Sc3ccccc3N2C)cc1` registered a solubility (kinetic) of 0.7 µg/mL (≈ 2.35 µM). In the case of `COC(=O)c1csc(S(=O)(=O)N2CCCCC2)c1OC` it was more than 47.9 µg/mL; in that of `CN(Cc1nc(-c2cccc(Cl)c2)no1)C1CCOCC1`, 36.9 µg/mL (≈ 120 µM).

The values are drawn from PubChem BioAssay AID1996.
